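Grown in 96-well plates, cells were treated for 48 hours with each compound at five concentrations. Insufficient inhibition: endpoint recorded as highest concentration tested. The concentration for full growth arrest is given as TGI.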
Tests used:
Assay in all cases: NCI anticancer screen, dose series, 48 h
SR leukemia = system: SR leukemia
HCC-2998 colon = system: HCC-2998 colon
BT-549 breast = system: BT-549 breast
UACC-257 melanoma = system: UACC-257 melanoma
ACHN renal = system: ACHN renal
MALME-3M melanoma = system: MALME-3M melanoma
SK-MEL-2 melanoma = system: SK-MEL-2 melanoma
MDA-MB-231 breast = system: MDA-MB-231 breast
NCI-H522 lung = system: NCI-H522 lung
A498 renal = system: A498 renal
OVCAR-8 ovarian = system: OVCAR-8 ovarian
HOP-62 NSCLC = system: HOP-62 NSCLC
NCI/ADR-RES ovarian = system: NCI/ADR-RES ovarian
SK-MEL-28 melanoma = system: SK-MEL-28 melanoma
OVCAR-3 ovarian = system: OVCAR-3 ovarian
NCI-H460 lung = system: NCI-H460 lung
UO-31 renal = system: UO-31 renal
SN12C renal = system: SN12C renal
OVCAR-5 ovarian = system: OVCAR-5 ovarian
HT29 colon = system: HT29 colon
SF-539 CNS = system: SF-539 CNS
EKVX NSCLC = system: EKVX NSCLC
OVCAR-4 ovarian = system: OVCAR-4 ovarian
LOX IMVI melanoma = system: LOX IMVI melanoma
MDA-N = system: MDA-N
MDA-MB-435 = system: MDA-MB-435
PC-3 prostate = system: PC-3 prostate
M14 melanoma = system: M14 melanoma
SK-MEL-5 melanoma = system: SK-MEL-5 melanoma
NCI-H226 lung = system: NCI-H226 lung
SF-295 CNS = system: SF-295 CNS
KM12 colon = system: KM12 colon
T-47D breast = system: T-47D breast
HOP-92 NSCLC = system: HOP-92 NSCLC
MCF7 breast = system: MCF7 breast
K-562 leukemia = system: K-562 leukemia
786-0 renal = system: 786-0 renal
DU-145 prostate = system: DU-145 prostate
UACC-62 melanoma = system: UACC-62 melanoma
HL-60(TB) leukemia = system: HL-60(TB) leukemia
U251 CNS = system: U251 CNS
SF-268 CNS = system: SF-268 CNS
SNB-75 CNS = system: SNB-75 CNS
HS 578T breast = system: HS 578T breast
RPMI-8226 leukemia = system: RPMI-8226 leukemia
COLO 205 colon = system: COLO 205 colon
CCRF-CEM leukemia = system: CCRF-CEM leukemia
CAKI-1 renal = system: CAKI-1 renal
A549 NSCLC = system: A549 NSCLC
HCT-15 colon = system: HCT-15 colon
RXF 393 renal = system: RXF 393 renal
MOLT-4 leukemia = system: MOLT-4 leukemia
IGROV1 ovarian = system: IGROV1 ovarian
HCT-116 colon = system: HCT-116 colon
SNB-19 CNS = system: SNB-19 CNS
SW-620 colon = system: SW-620 colon
NCI-H23 lung = system: NCI-H23 lung
TK-10 renal = system: TK-10 renal
SK-OV-3 ovarian = system: SK-OV-3 ovarian

Measured: TGI

CCc1c(-c2ccc(OC)cc2)c(=O)oc2cc(O)ccc12
98.7 µM: A498 renal
87.5 µM: OVCAR-3 ovarian
47.6 µM: RPMI-8226 leukemia
58.4 µM: SR leukemia
97.1 µM: COLO 205 colon
57.9 µM: MOLT-4 leukemia
79.5 µM: MALME-3M melanoma
33.8 µM: SK-MEL-5 melanoma
75.9 µM: BT-549 breast
68.4 µM: UO-31 renal
83.3 µM: PC-3 prostate
32.6 µM: HL-60(TB) leukemia
56.8 µM: M14 melanoma
61.3 µM: UACC-257 melanoma
not listed: TK-10 renal | SK-OV-3 ovarian
> 100 µM: all other assays above

CCN(CC)CCn1ncc2c3c(=O)c4cccnc4n(CCN(CC)CC)c3ccc21
6.67 µM: COLO 205 colon
not listed: UO-31 renal
> 10 µM: all other assays above
